Patent US20210386695A1 (priority 2020, published 2021)

Experiments:
[1] = test system: wild type SARS-CoV-2 pseudo-particles; type: cell-based
SARS-CoV-2 PL^pro = SARS-CoV-2 PL^pro (Severe acute respiratory syndrome coronavirus 2, UniProt P0DTD1); experiment: SARS-CoV-2 PLpro protease activity, peptide substrate Z-RLRGG-AMC; type: biochemical
in vitro = settings: African green monkey
[2] = test system: wild type SARS-CoV-2 pseudo-particles; type: cell-based; remark: listed apart in the source
[3] = test system: wild type SARS-CoV-2 pseudo-particles; experiment: microbe, parasite or virus in culture; type: cell-based; settings: Severe acute respiratory syndrome coronavirus 2, Vero C1008
SARS-CoV-2 M^pro = SARS-CoV-2 M^pro (Severe acute respiratory syndrome coronavirus 2, UniProt P0DTD1); experiment: FRET based assay of SARS-CoV-2 Mpro protease activity; type: biochemical
[4] = read-out: inhibitory effect on the protease activity of SARS-CoV-2 PL^pro

With `CCN(CC)C(=S)SSC(=S)N(CC)CC` [disulfiram] as the compound, how does the “block of viral pseudo-particles infection” value [1] read?
Its value is “dose-dependent manner”.

And the “inhibitory effect on the protease activity of SARS-CoV-2 PL^pro” value (SARS-CoV-2 PL^pro; 1 μM disulfiram)?
Its value is “does not inhibit”.

What about the inhibition at 5 µM (SARS-CoV-2 PL^pro; [4]) of the same compound?
Its inhibition at 5 µM is 21.7%.

And the inhibition at 10 µM (SARS-CoV-2 PL^pro; [4])?
Its inhibition at 10 µM is 36.3%.

And the inhibition at 30 µM (SARS-CoV-2 PL^pro; [4])?
The inhibition at 30 µM was 77.9%.

And the inhibition at 60 µM (SARS-CoV-2 PL^pro; [4])?
The inhibition at 60 µM was 99.9%.

What about the CC50 (in vitro) of the same compound?
Its CC50 is 15.7 µM.

What about the “inhibitory capacity in furin-expressing Vero E6 cells compared with Vero E6 cells” value [2] of the same compound?
Its value is “similar”.

And the EC50 [3]?
The EC50 was 3.1 µM.

And the inhibition at 1 µM (SARS-CoV-2 M^pro)?
The inhibition at 1 µM was 16%.

And the inhibition at 5 µM (SARS-CoV-2 M^pro)?
Its inhibition at 5 µM is 80.9%.

And the inhibition at 10 µM (SARS-CoV-2 M^pro)?
Its inhibition at 10 µM is 87.1%.

And the “inhibition of protease activity of SARS-CoV-2 M^pro” value (SARS-CoV-2 M^pro; 30 μM disulfiram)?
The value was “full inhibition”.

And the “inhibition of protease activity of SARS-CoV-2 M^pro” value (SARS-CoV-2 M^pro; 60 μM disulfiram)?
The value was “full inhibition”.
